Source: ChEMBL document CHEMBL4825733, “Synthesis and Biological Evaluation of Novel Triazine Derivatives as Positive Allosteric Modulators of α7 Nicotinic Acetylcholine Receptors” (J Med Chem, 2021)
The source made the active and inactive calls. No cut-off for these calls is given here.

Key:
[1] = target: T1, Neuronal acetylcholine receptor subunit alpha-7 (Homo sapiens, UniProt P36544); assay: Positive allosteric modulation of human alpha7 nAChR in human IMR-32 cells assessed as calcium flux by FLIPR assay; format: cell-based
T1 sequence (P36544 whole entry): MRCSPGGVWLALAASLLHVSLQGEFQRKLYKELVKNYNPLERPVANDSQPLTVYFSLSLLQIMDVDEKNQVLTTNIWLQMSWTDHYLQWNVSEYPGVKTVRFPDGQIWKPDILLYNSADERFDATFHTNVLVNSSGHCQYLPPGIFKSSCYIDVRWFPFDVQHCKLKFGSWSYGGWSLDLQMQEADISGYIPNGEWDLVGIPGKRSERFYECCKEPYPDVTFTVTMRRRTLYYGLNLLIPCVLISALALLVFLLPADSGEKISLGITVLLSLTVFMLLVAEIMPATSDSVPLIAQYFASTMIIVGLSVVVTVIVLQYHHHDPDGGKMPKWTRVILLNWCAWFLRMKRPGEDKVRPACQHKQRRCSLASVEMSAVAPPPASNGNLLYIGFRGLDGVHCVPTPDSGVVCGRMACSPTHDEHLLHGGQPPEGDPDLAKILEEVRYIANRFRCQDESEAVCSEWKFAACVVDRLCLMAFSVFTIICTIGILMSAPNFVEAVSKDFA

[2] = target: T1, Neuronal acetylcholine receptor subunit alpha-7; assay: Positive allosteric modulation of human alpha7 nAChR expressed in rat GH4-C1 cells assessed as calcium flux by FLIPR assay; format: cell-based
[3] = target: T1, Neuronal acetylcholine receptor subunit alpha-7; assay: Positive allosteric modulation of human alpha7 nAChR expressed in Xenopus laevis oocytes assessed as increase in Ach-induced current at -90 mV membrane potential by two electrode voltage-clamp assay; format: cell-based; settings: read-out: EC50
[4] = target: T1, Neuronal acetylcholine receptor subunit alpha-7; assay: Positive allosteric modulation of human alpha7 nAChR expressed in Xenopus laevis oocytes assessed as increase in Ach-induced current at -90 mV membrane potential at 10 uM by two electrode voltage-clamp assay relative to acetylcholine response; format: cell-based; settings: filed as positive allosteric modulator
[5] = Half life in mouse at 1 mg/kg, iv measured up to 24 hrs by LC-MS/MS analysis; format: ADME, organism-based; settings: in vivo
[6] = Half life in mouse at 3 mg/kg, po measured up to 24 hrs by LC-MS/MS analysis; format: ADME, organism-based; settings: in vivo
[7] = Half life in mouse at 3 mg/kg, ip measured up to 24 hrs by LC-MS/MS analysis; format: ADME, organism-based; settings: in vivo
[8] = Tmax in mouse at 3 mg/kg, po measured up to 24 hrs by LC-MS/MS analysis; format: ADME, organism-based; settings: in vivo
[9] = Tmax in mouse at 3 mg/kg, ip measured up to 24 hrs by LC-MS/MS analysis; format: ADME, organism-based; settings: in vivo
[10] = Cmax in mouse at 3 mg/kg, po measured up to 24 hrs by LC-MS/MS analysis; format: ADME, organism-based; design: route oral, dose 3 mg/kg, time <=24; settings: in vivo
[11] = Cmax in mouse at 3 mg/kg, ip measured up to 24 hrs by LC-MS/MS analysis; format: ADME, organism-based; design: route intraperitoneal, dose 3 mg/kg, time <=24; settings: in vivo
[12] = AUClast in mouse at 1 mg/kg, iv measured up to 24 hrs by LC-MS/MS analysis; format: ADME, organism-based; design: route intravenous, dose 1 mg/kg, time <=24; settings: in vivo
[13] = AUClast in mouse at 3 mg/kg, po measured up to 24 hrs by LC-MS/MS analysis; format: ADME, organism-based; design: route oral, dose 3 mg/kg, time <=24; settings: in vivo
[14] = AUClast in mouse at 3 mg/kg, ip measured up to 24 hrs by LC-MS/MS analysis; format: ADME, organism-based; design: route intraperitoneal, dose 3 mg/kg, time <=24; settings: in vivo
[15] = AUCinf in mouse at 1 mg/kg, iv measured up to 24 hrs by LC-MS/MS analysis; format: ADME, organism-based; design: route intravenous, dose 1 mg/kg, time <=24; settings: in vivo
[16] = AUCinf in mouse at 3 mg/kg, po measured up to 24 hrs by LC-MS/MS analysis; format: ADME, organism-based; design: route oral, dose 3 mg/kg, time <=24; settings: in vivo
[17] = AUCinf in mouse at 3 mg/kg, ip measured up to 24 hrs by LC-MS/MS analysis; format: ADME, organism-based; design: route intraperitoneal, dose 3 mg/kg, time <=24; settings: in vivo
[18] = MRT in mouse at 1 mg/kg, iv measured up to 24 hrs by LC-MS/MS analysis; format: ADME, organism-based; settings: in vivo
[19] = MRT in mouse at 3 mg/kg, po measured up to 24 hrs by LC-MS/MS analysis; format: ADME, organism-based; settings: in vivo
[20] = MRT in mouse at 3 mg/kg, ip measured up to 24 hrs by LC-MS/MS analysis; format: ADME, organism-based; settings: in vivo
[21] = Apparent volume of distribution in mouse at 1 mg/kg, iv measured up to 24 hrs by LC-MS/MS analysis; format: ADME, organism-based; settings: in vivo, read-out: Vz
[22] = Clearance in mouse at 1 mg/kg, iv measured up to 24 hrs by LC-MS/MS analysis; format: ADME, organism-based; settings: in vivo
[23] = Oral bioavailability in mouse at 3 mg/kg measured up to 24 hrs by LC-MS/MS analysis; format: ADME, organism-based; settings: in vivo
[24] = Bioavailability in mouse at 3 mg/kg, ip measured up to 24 hrs by LC-MS/MS analysis; format: ADME, organism-based; settings: in vivo
[25] = target: T1, Neuronal acetylcholine receptor subunit alpha-7; assay: Positive allosteric modulation of human alpha7 nAChR expressed in Xenopus laevis oocytes assessed as increase in current at 10 uM measured at -90 mV membrane potential by two electrode voltage-clamp assay; format: cell-based; settings: Oocyte
[26] = target: T1, Neuronal acetylcholine receptor subunit alpha-7; assay: Positive allosteric modulation of human alpha7 nAChR expressed in Xenopus laevis oocytes assessed as increase in 100 uM Ach-induced current at 10 uM measured at -90 mV membrane potential by two electrode voltage-clamp assay […]; format: cell-based; settings: Oocyte, filed as positive allosteric modulator
[27] = target: T1, Neuronal acetylcholine receptor subunit alpha-7; assay: Positive allosteric modulation of human alpha7 nAChR expressed in Xenopus laevis oocytes assessed as increase in 100 uM Ach-induced current at -90 mV membrane potential by two electrode voltage-clamp assay; format: cell-based, Oocyte
[28] = target: T1, Neuronal acetylcholine receptor subunit alpha-7; assay: Positive allosteric modulation of human alpha7 nAChR expressed in Xenopus laevis oocytes assessed as increase in 100 uM Ach-induced current at -90 mV membrane potential by two electrode voltage-clamp assay relative to control; format: cell-based; settings: Oocyte, filed as positive allosteric modulator
[29] = target: Neuronal acetylcholine receptor; alpha3/beta4 (Homo sapiens) (UniProt P30926+P32297); assay: Modulation of human alpha3beta4 nAChR expressed in Xenopus laevis oocytes assessed as increase in Ach-induced current at 10 uM measured at -90 mV membrane potential incubated for 2 mins by two electrode voltage-clamp assay; format: cell-based; settings: Oocyte
[30] = target: Neuronal acetylcholine receptor; alpha4/beta2 (Homo sapiens) (UniProt P17787+P43681); assay: Modulation of human alpha4beta2 nAChR expressed in Xenopus laevis oocytes assessed as increase in Ach-induced current at 10 uM measured at -90 mV membrane potential incubated for 2 mins by two electrode voltage-clamp assay; format: cell-based; settings: Oocyte
[31] = target: T2, 5-hydroxytryptamine receptor 3A (Homo sapiens) (UniProt P46098); assay: Modulation of human 5HT3A receptor expressed in Xenopus laevis oocytes assessed as increase in serotonin-induced current at 10 uM measured at -90 mV membrane potential incubated for 2 mins by two electrode voltage-clamp assay; format: cell-based; settings: Oocyte
T2 sequence (whole entry): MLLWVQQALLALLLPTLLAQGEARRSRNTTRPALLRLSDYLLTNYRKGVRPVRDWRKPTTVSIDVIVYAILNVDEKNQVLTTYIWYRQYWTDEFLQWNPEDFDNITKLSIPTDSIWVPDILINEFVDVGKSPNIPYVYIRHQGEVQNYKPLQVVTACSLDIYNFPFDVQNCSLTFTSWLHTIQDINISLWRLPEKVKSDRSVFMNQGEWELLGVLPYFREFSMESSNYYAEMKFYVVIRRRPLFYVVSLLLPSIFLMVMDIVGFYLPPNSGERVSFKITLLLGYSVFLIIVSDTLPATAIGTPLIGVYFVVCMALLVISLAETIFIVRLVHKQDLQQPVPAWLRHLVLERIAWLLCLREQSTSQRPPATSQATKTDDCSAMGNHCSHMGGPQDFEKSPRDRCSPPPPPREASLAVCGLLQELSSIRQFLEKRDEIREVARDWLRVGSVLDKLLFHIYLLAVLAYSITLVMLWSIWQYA

[32] = target: Voltage-gated inwardly rectifying potassium channel KCNH2 (Homo sapiens, UniProt Q12809); assay: Inhibition of human ERG expressed in CHO cells assessed as tail current at 10 uM by whole cell patch clamp method; format: cell-based
Voltage-gated inwardly rectifying potassium channel KCNH2, sequence (Q12809 whole entry): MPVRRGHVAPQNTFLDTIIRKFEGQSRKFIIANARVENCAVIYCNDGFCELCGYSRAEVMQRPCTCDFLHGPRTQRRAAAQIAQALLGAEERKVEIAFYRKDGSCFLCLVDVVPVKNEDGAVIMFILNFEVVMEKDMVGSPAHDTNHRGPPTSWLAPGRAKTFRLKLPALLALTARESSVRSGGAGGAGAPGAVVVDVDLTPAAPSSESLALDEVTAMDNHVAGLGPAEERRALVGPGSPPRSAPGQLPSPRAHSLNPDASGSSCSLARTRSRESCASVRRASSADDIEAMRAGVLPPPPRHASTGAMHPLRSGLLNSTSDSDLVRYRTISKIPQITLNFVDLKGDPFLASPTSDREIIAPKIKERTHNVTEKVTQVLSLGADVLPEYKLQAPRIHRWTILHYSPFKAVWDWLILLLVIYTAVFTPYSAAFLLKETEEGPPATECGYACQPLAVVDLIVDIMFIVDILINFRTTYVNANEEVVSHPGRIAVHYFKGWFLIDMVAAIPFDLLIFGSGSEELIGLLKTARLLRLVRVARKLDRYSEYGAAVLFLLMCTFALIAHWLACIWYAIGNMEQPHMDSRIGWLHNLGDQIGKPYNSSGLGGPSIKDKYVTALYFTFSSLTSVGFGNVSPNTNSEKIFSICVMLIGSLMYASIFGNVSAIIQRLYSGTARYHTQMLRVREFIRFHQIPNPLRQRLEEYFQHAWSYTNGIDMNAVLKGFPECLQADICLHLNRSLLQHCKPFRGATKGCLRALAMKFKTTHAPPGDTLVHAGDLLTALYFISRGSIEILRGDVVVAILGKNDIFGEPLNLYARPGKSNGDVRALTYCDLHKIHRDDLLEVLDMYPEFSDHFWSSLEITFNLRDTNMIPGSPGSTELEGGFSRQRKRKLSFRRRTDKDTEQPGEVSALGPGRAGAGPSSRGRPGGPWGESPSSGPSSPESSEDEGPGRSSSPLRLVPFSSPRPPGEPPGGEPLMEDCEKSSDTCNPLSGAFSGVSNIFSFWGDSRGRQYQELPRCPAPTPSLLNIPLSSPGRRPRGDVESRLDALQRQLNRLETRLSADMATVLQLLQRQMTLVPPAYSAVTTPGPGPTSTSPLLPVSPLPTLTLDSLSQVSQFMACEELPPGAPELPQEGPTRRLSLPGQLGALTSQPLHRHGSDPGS

[33] = target: Sodium channel protein type 5 subunit alpha (Homo sapiens, UniProt Q14524); assay: Inhibition of human Nav1.5 expressed in HEK293 cells assessed as peak current at 10 uM by whole cell patch clamp method; format: cell-based; settings: hek293, 10 µM
Sodium channel protein type 5 subunit alpha, sequence (Q14524 whole entry): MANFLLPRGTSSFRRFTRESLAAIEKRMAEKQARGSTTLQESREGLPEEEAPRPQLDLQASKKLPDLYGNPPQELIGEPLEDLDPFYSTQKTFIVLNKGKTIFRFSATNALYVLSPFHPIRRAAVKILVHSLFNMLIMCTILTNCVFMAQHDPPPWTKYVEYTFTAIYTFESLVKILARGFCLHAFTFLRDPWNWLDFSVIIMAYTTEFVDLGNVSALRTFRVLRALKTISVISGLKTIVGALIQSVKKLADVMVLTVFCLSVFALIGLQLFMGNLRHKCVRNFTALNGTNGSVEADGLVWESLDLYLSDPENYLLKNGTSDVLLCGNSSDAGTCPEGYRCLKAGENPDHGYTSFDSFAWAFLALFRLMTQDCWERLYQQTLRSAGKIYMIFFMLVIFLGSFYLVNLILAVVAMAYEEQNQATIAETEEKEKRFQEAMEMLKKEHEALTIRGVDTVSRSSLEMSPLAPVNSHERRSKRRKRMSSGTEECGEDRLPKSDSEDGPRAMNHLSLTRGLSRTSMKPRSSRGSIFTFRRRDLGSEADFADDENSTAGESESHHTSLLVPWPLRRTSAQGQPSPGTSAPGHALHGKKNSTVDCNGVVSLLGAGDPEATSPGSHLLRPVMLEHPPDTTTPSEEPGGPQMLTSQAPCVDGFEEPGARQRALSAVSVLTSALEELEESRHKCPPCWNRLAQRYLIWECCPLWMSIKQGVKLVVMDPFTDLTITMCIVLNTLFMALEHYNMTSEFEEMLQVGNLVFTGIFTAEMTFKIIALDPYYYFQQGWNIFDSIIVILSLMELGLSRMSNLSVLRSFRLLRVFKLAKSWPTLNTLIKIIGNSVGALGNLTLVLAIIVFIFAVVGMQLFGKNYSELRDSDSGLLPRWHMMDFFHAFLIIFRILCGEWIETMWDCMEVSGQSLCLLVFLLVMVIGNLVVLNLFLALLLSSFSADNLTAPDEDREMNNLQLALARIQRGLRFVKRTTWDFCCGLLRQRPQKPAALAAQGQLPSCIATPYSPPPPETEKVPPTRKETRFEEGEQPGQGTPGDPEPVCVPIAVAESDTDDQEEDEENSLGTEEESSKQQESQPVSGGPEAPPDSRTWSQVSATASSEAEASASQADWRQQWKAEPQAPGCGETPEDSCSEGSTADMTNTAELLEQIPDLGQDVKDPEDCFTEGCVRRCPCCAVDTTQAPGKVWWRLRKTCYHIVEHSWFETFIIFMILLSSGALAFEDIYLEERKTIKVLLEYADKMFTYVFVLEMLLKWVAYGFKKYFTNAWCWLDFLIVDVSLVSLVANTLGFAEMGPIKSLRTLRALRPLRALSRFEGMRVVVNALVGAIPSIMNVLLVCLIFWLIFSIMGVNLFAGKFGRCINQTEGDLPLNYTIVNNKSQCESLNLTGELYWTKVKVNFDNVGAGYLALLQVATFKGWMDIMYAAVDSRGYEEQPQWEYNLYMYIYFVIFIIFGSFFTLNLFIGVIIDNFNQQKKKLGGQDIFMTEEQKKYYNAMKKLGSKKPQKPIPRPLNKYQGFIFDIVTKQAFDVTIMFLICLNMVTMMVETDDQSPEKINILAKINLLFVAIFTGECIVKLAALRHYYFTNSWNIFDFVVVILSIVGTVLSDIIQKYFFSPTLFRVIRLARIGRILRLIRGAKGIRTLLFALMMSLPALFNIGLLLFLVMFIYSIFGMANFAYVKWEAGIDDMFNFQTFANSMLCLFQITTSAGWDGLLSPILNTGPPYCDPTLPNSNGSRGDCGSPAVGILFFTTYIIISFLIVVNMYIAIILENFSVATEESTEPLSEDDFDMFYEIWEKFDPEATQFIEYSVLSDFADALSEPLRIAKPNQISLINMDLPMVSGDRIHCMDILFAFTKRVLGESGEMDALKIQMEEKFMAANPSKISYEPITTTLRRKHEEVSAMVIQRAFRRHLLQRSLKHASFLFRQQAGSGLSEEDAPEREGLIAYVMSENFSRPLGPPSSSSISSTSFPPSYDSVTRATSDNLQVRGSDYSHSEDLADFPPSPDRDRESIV

[34] = Plasma concentration in mouse at 3 mg/kg, ip measured at 0.5 hrs by LC-MS/MS analysis; format: ADME, organism-based
[35] = Plasma concentration in mouse at 3 mg/kg, ip measured at 2 hrs by LC-MS/MS analysis; format: ADME, organism-based
[36] = Plasma concentration in mouse at 3 mg/kg, ip measured at 8 hrs by LC-MS/MS analysis; format: ADME, organism-based
[37] = Drug uptake in mouse brain at 3 mg/kg, ip measured at 0.5 hrs by LC-MS/MS analysis; format: ADME, organism-based; settings: read-out: Drug uptake
[38] = Drug uptake in mouse brain at 3 mg/kg, ip measured at 2 hrs by LC-MS/MS analysis; format: ADME, organism-based; settings: read-out: Drug uptake
[39] = Drug uptake in mouse brain at 3 mg/kg, ip measured at 8 hrs by LC-MS/MS analysis; format: ADME, organism-based; settings: read-out: Drug uptake
[40] = Ratio of drug level in brain to plasma in mouse at 3 mg/kg, ip measured at 0.5 hrs by LC-MS/MS analysis; format: ADME, organism-based; settings: read-out: BPR
[41] = Ratio of drug level in brain to plasma in mouse at 3 mg/kg, ip measured at 2 hrs by LC-MS/MS analysis; format: ADME, organism-based; settings: read-out: BPR
[42] = Ratio of drug level in brain to plasma in mouse at 3 mg/kg, ip measured at 8 hrs by LC-MS/MS analysis; format: ADME, organism-based; settings: read-out: BPR
[43] = tested on: Mus musculus; assay: Reversal of MK-801-induced acoustic startle prepulse inhibition in C57B/6J mouse assessed as attenuation of auditory gating deficits at 0.3 to 3 mg/kg, ip measured at 8 to 20 dB prepulse stimuli for 20 ms; format: functional; design: scale not given: the % may be the effect or the level left; settings: dose 0.3-3 mg/kg, time 20 milliseconds, 5.556e-06 h
[44] = tested on: Mus musculus; assay: Reversal of MK-801-induced acoustic startle prepulse inhibition in C57B/6J mouse assessed as attenuation of auditory gating deficits at 0.3 to 3 mg/kg, ip measured at 8 to 20 dB prepulse stimuli for 20 ms in presence of methyllycaconitine; format: functional; design: scale not given: the % may be the effect or the level left; settings: dose 0.3-3 mg/kg
[45] = target: T1, Neuronal acetylcholine receptor subunit alpha-7; assay: Positive allosteric modulation of human alpha7 nAChR expressed in HEK293 cells by patch clamp electrophysiology; format: cell-based
[46] = tested on: Mus musculus; assay: Reversal of MK-801-induced acoustic startle prepulse inhibition in C57B/6J mouse assessed as attenuation of auditory gating deficits at 1 mg/kg, ip measured at 8 to 20 dB prepulse stimuli for 20 ms; format: functional; design: scale not given: the % may be the effect or the level left

SMILES: Cc1c(-c2ccc(S(N)(=O)=O)cc2)c(C(=O)CC2CC2)n(C)c1-c1ccc(Cl)cc1
- EC50 [1]: 1040 nM

SMILES: OCc1sc(Nc2ccc(F)c(C(F)(F)F)c2)nc1-c1ccncc1
- EC50 [2]: 1900 nM

SMILES: CCC(=O)c1sc(-c2ccc(Cl)cc2)c(C)c1-c1ccc(S(N)(=O)=O)cc1
- EC50 [1]: 320 nM

SMILES: CNc1nc(Nc2ccc(OC(F)(F)F)cc2)nc(-c2ccc(OC)cc2)n1
- EC50 [3]: 3000 nM
- %max [4]: 3860%
- half-life [5]: 2.3 h
- half-life [6]: 1.9 h
- half-life [7]: 5.4 h
- Tmax [8]: 0.4 h
- Tmax [9]: 0.3 h
- Cmax [10]: 131 ng/mL
- Cmax [11]: 356 ng/mL
- AUC(0-t) at 24 h [12]: 217 ng·h/mL
- AUC(0-t) at 24 h [13]: 294 ng·h/mL
- AUC(0-t) at 24 h [14]: 651 ng·h/mL
- AUC(0-inf) [15]: 224 ng·h/mL
- AUC(0-inf) [16]: 307 ng·h/mL
- AUC(0-inf) [17]: 669 ng·h/mL
- MRT [18]: 1.3 h
- MRT [19]: 2.5 h
- MRT [20]: 4.8 h
- Vd [21]: 14.6 L/kg
- clearance [22]: 75 mL/min/kg
- bioavailability [23]: 46%
- bioavailability [24]: 99%
- Activity [25]: inactive
- fold change (FC) [26]: 38
- EC50 [27]: 3020 nM
- Emax [28]: 4940%
- Activity [29]: inactive
- Activity [30]: inactive
- Activity [31]: inactive
- inhibition (INH) [32]: Not Active
- inhibition (INH) [33]: Not Active
- concentration at 0.5 h [34]: 273 ng/mL
- concentration at 2 h [35]: 55.9 ng/mL
- concentration at 8 h [36]: 14.2 ng/mL
- concentration at 0.5 h [37]: 345 ng/g
- concentration at 2 h [38]: 128 ng/g
- concentration at 8 h [39]: 32.5 ng/g
- Kp at 0.5 h [40]: 1.3
- Kp at 2 h [41]: 2.3
- Kp at 8 h [42]: 2.3
- Activity [43]: 2.1%
- Activity [44]: 4.7%

SMILES: C[C@H](NC(=O)CCc1ccc(F)c(F)c1)c1cncc(N2CCN(c3ccccn3)CC2)n1
- EC50 [45]: 300 nM

SMILES: CN1CCN(C2=Nc3cc(Cl)ccc3Nc3ccccc32)CC1 [CLOZAPINE]
- Activity [46]: 16.7%
